The text below walks through data of patent US20250270213A1, “PI3Ka INHIBITORS” (Synnovation Therapeutics, Inc., priority 2022, published 2025).

The structures appear in SMILES notation.

For this test, the system named is T47D (PIK3CA H1047R) cells. Kind of test: pS473 AKT assay with 2.5% FBS, T47D cells. It counts as cell-based. The note with it: Homo sapiens, pSer473 AKT, DMEM with 2.5% FBS, 2 h treatment, read-out: T47D_IC50. Summed up: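 In-cell chemiluminescent ELISA of AKT Ser473 phosphorylation, using anti-pSer473 primary and HRP secondary antibodies on fixed cells. T47D (PIK3CA H1047R) cells had 2 h of compound treatment in DMEM containing 2.5% FBS; IC50 derived from dose-response.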

As to `COC(=O)N1CC(n2ncc3c4c(C(C)Nc5ccc(Cl)nc5-c5ncn(C)n5)cc(C)cc4c(=O)n(C)c32)C1` (stereo not drawn) [Compound 98, methyl 3-(9-(1-((6-chloro-2-(1-methyl-1H-1,2,4-triazol-3-yl)pyridin-3-yl)amino)ethyl)-4,7-dimethyl-5-oxo-4,5-dihydro-3H-pyrazolo[3,4-c]isoquinolin-3-yl)azetidine-1-carboxylate], the IC50 is below 1000 nM.

In the case of `Cc1cc(C(C)Nc2ccc(Cl)nc2-c2ncn(C)n2)c2c(c1)c(=O)n(C)c1c2cnn1C1CN(S(C)(=O)=O)C1` (stereo not drawn) [Compound 99, 9-(1-((6-chloro-2-(1-methyl-1H-1,2,4-triazol-3-yl)pyridin-3-yl)amino)ethyl)-4,7-dimethyl-3-(1-(methylsulfonyl)azetidin-3-yl)-3,4-dihydro-5H-pyrazolo[3,4-c]isoquinolin-5-one], the IC50 was below 1000 nM.

On to `CC(=O)N1CC(n2ncc3c4c(C(C)Nc5ccc(Cl)nc5-c5ccc(=O)n(C)c5)cc(C)cc4c(=O)n(C)c32)C1` (stereo not drawn) [Compound 100, 3-(1-Acetylazetidin-3-yl)-9-(1-((6-chloro-1′-methyl-6′-oxo-1′,6′-dihydro-[2,3′-bipyridin]-3-yl)amino)ethyl)-4,7-dimethyl-3,4-dihydro-5H-pyrazolo[3,4-c]isoquinolin-5-one], for which the IC50 was below 1000 nM.

For `CNC(=O)c1ccc(-c2nc(Cl)ccc2NC(C)c2cc(C)cc3c(=O)n(C)c4c(cnn4C4CN(C(C)=O)C4)c23)cn1` (stereo not drawn) [Compound 101, 3-((1-(3-(1-acetylazetidin-3-yl)-4,7-dimethyl-5-oxo-4,5-dihydro-3H-pyrazolo[3,4-c]isoquinolin-9-yl)ethyl)amino)-6-chloro-N-methyl-[2,3′-bipyridine]-6′-carboxamide], the IC50 was below 1000 nM.

Regarding `CC(=O)N1CC(n2ncc3c4c(C(C)Nc5ccc(Cl)nc5-c5ncn(CCO)n5)cc(C)cc4c(=O)n(C)c32)C1` (stereo not drawn) [Compound 102, 3-(1-acetylazetidin-3-yl)-9-(1-((6-chloro-2-(1-(2-hydroxyethyl)-1H-1,2,4-triazol-3-yl)pyridin-3-yl)amino)ethyl)-4,7-dimethyl-3,4-dihydro-5H-pyrazolo[3,4-c]isoquinolin-5-one], the IC50 was 1000 to 5000 nM.

As for `Cc1cc(C(C)Nc2ccc(Cl)nc2-c2ncn(C)n2)c2c(c1)c(=O)n(C)c1c2cnn1C1CN(C(=O)CO)C1` (stereo not drawn) [Compound 103, 9-(1-((6-Chloro-2-(1-methyl-1H-1,2,4-triazol-3-yl)pyridin-3-yl)amino)ethyl)-3-(1-(2-hydroxyacetyl)azetidin-3-yl)-4,7-dimethyl-3,4-dihydro-5H-pyrazolo[3,4-c]isoquinolin-5-one], the IC50 was below 1000 nM.

For `Cc1cc(C(C)Nc2ccc(Cl)nc2-c2ncn(C)n2)c2c(c1)c(=O)n(C)c1c2cnn1C1CN(C(=O)CN(C)C)C1` (stereo not drawn) [Compound 104, 9-(1-((6-Chloro-2-(1-methyl-1H-1,2,4-triazol-3-yl)pyridin-3-yl)amino)ethyl)-3-(1-(dimethylglycyl)azetidin-3-yl)-4,7-dimethyl-3,4-dihydro-5H-pyrazolo[3,4-c]isoquinolin-5-one], the IC50 was below 1000 nM.

Turning to `[2H]C([2H])([2H])n1c(=O)c2cc(C)cc(C(C)Nc3ccc(Cl)nc3-c3ncn(C)n3)c2c2cnn([C@H]3CCN(C)C3)c21` (stereo partly drawn) [Compound 105, 9-(1-((6-Chloro-2-(1-methyl-1H-1,2,4-triazol-3-yl)pyridin-3-yl)amino)ethyl)-7-methyl-4-(methyl-d3)-3-((S)-1-methylpyrrolidin-3-yl)-3,4-dihydro-5H-pyrazolo[3,4-c]isoquinolin-5-one], the IC50 was below 1000 nM.

`Cc1cc(C(C)Nc2ccc(Cl)nc2-c2cnn(C)c2)c2c(c1)c(=O)n(C)c1c2cnn1CC1CCN(CC(F)F)CC1` (stereo not drawn) [Compound 106, 9-(1-((6-Chloro-2-(1-methyl-1H-pyrazol-4-yl)pyridin-3-yl)amino)ethyl)-3-((1-(2,2-difluoroethyl)piperidin-4-yl)methyl)-4,7-dimethyl-3,4-dihydro-5H-pyrazolo[3,4-c]isoquinolin-5-one]: the IC50 is below 1000 nM.

Regarding `CC(=O)N1CCC(Cn2ncc3c4c(C(C)Nc5ccc(Cl)nc5-c5cnn(C)c5)cc(C)cc4c(=O)n(C)c32)CC1` (stereo not drawn) [Compound 107, 3-((1-acetylpiperidin-4-yl)methyl)-9-(1-((6-chloro-2-(1-methyl-1H-pyrazol-4-yl)pyridin-3-yl)amino)ethyl)-4,7-dimethyl-3,4-dihydro-5H-pyrazolo[3,4-c]isoquinolin-5-one], the IC50 was below 1000 nM.

On to `Cc1cc(C(C)Nc2ccc(Cl)nc2-c2cnn(C)c2)c2c(c1)c(=O)n(C)c1c2cnn1CC1CCN(C(=O)N(C)C)CC1` (stereo not drawn) [Compound 108, 4-((9-(1-((6-chloro-2-(1-methyl-1H-pyrazol-4-yl)pyridin-3-yl)amino)ethyl)-4,7-dimethyl-5-oxo-4,5-dihydro-3H-pyrazolo[3,4-c]isoquinolin-3-yl)methyl)-N,N-dimethylpiperidine-1-carboxamide], for which the IC50 was below 1000 nM.

Take `CCNC(=O)N1CCC(Cn2ncc3c4c(C(C)Nc5ccc(Cl)nc5-c5ccncc5F)cc(C)cc4c(=O)n(C)c32)CC1` (stereo not drawn) [Compound 109, 4-((9-(1-((6-Chloro-3′-fluoro-[2,4′-bipyridin]-3-yl)amino)ethyl)-4,7-dimethyl-5-oxo-4,5-dihydro-3H-pyrazolo[3,4-c]isoquinolin-3-yl)methyl)-N-ethylpiperidine-1-carboxamide]: the IC50 is below 1000 nM.

Regarding `Cc1cc(C(C)Nc2ccc(Cl)nc2-c2ccncc2F)c2c(c1)c(=O)n(C)c1c2cnn1CC1CCN(CC(F)F)C1` (stereo not drawn) [Compound 110, 9-(1-((6-Chloro-3′-fluoro-[2,4′-bipyridin]-3-yl)amino)ethyl)-3-((1-(2,2-difluoroethyl)pyrrolidin-3-yl)methyl)-4,7-dimethyl-3,4-dihydro-5H-pyrazolo[3,4-c]isoquinolin-5-one], the IC50 is below 1000 nM.

`Cc1cc(C(C)Nc2ccc(Cl)nc2-c2ncn(C)n2)c2c(c1)c(=O)n(C)c1c(C(C)O)ncn21` (stereo not drawn) [Compound 111, 9-(1-((6-Chloro-2-(1-methyl-1H-1,2,4-triazol-3-yl)pyridin-3-yl)amino)ethyl)-3-(1-hydroxyethyl)-4,7-dimethylimidazo[1,5-a]quinazolin-5(4H)-one]: the IC50 is below 1000 nM.

`Cc1cc(C(C)Nc2ccc(Cl)nc2-c2ncn(C)n2)c2c(c1)c(=O)n(C)c1c(-c3cccnc3)ncn21` (stereo not drawn) [Compound 112, 9-(1-((6-Chloro-2-(1-methyl-1H-1,2,4-triazol-3-yl)pyridin-3-yl)amino)ethyl)-4,7-dimethyl-3-(pyridin-3-yl) imidazo[1,5-a]quinazolin-5(4H)-one]: the IC50 was below 1000 nM.

As for `Cc1cc(C(C)Nc2ccc(Cl)nc2-c2ncn(C)n2)c2c(c1)c(=O)n(C)c1c(-c3cccnc3C)ncn21` (stereo not drawn) [Compound 113, 9-(1-((6-chloro-2-(1-methyl-1H-1,2,4-triazol-3-yl)pyridin-3-yl)amino)ethyl)-4,7-dimethyl-3-(2-methylpyridin-3-yl)imidazo[1,5-a]quinazolin-5(4H)-one], the IC50 was below 1000 nM.

Consider `Cc1cc(C(C)Nc2ccc(Cl)nc2-c2ncn(C)n2)c2c(c1)c(=O)n(C)c1c(-c3cncnc3)ncn21` (stereo not drawn) [Compound 114, 9-(1-((6-chloro-2-(1-methyl-1H-1,2,4-triazol-3-yl)pyridin-3-yl)amino)ethyl)-4,7-dimethyl-3-(pyrimidin-5-yl)imidazo[1,5-a]quinazolin-5(4H)-one], for which the IC50 is below 1000 nM.

On to `Cc1cc(C(C)Nc2ccc(Cl)nc2-c2ncn(C)n2)c2c(c1)c(=O)n(C)c1c(-c3ccnc(C)c3)ncn21` (stereo not drawn) [Compound 115, 9-(1-((6-chloro-2-(1-methyl-1H-1,2,4-triazol-3-yl)pyridin-3-yl)amino)ethyl)-4,7-dimethyl-3-(2-methylpyridin-4-yl)imidazo[1,5-a]quinazolin-5(4H)-one], for which the IC50 was below 1000 nM.

Turning to `Cc1cc(C(C)Nc2ccc(Cl)nc2-c2cnn(C)c2)c2c(c1)c(=O)n(C)c1c(-c3cccnc3C)ncn21` (stereo not drawn) [Compound 116, 9-(1-((6-Chloro-2-(1-methyl-1H-pyrazol-4-yl)pyridin-3-yl)amino)ethyl)-4,7-dimethyl-3-(2-methylpyridin-3-yl) imidazo[1,5-a]quinazolin-5(4H)-one], the IC50 is below 1000 nM.

For the compound `Cc1cc(C(C)Nc2ccc(Cl)nc2-c2cnn(C)c2)c2c(c1)c(=O)n(C)c1c(-c3cncnc3)ncn21` (stereo not drawn) [Compound 117, 9-(1-((6-chloro-2-(1-methyl-1H-pyrazol-4-yl)pyridin-3-yl)amino)ethyl)-4,7-dimethyl-3-(pyrimidin-5-yl)imidazo[1,5-a]quinazolin-5(4H)-one], the IC50 is below 1000 nM.

On to `CNC(=O)c1cc(-c2ncn3c4c(C(C)Nc5ccc(Cl)nc5-c5cnn(C)c5)cc(C)cc4c(=O)n(C)c23)ccn1` (stereo not drawn) [Compound 118, 4-(9-(1-((6-chloro-2-(1-methyl-1H-pyrazol-4-yl)pyridin-3-yl)amino)ethyl)-4,7-dimethyl-5-oxo-4,5-dihydroimidazo[1,5-a]quinazolin-3-yl)-N-methylpicolinamide], for which the IC50 was below 1000 nM.

`Cc1cc(C(C)Nc2ccc(Cl)nc2-c2ncn(C)n2)c2c(c1)c(=O)n(C)c1c(C(=O)N(C)C)ncn21` (stereo not drawn) [Compound 119, 9-(1-((6-Chloro-2-(1-methyl-1H-1,2,4-triazol-3-yl)pyridin-3-yl)amino)ethyl)-N,N,4,7-tetramethyl-5-oxo-4,5-dihydroimidazo[1,5-a]quinazoline-3-carboxamide]: the IC50 was below 1000 nM.

As to `Cc1cc(C(C)Nc2ccc(Cl)nc2-c2cnn(C)c2)c2c(c1)c(=O)n(C)c1c(C(=O)N(C)C)ncn21` (stereo not drawn) [Compound 120, 9-(1-((6-Chloro-2-(1-methyl-1H-pyrazol-4-yl)pyridin-3-yl)amino)ethyl)-N,N,4,7-tetramethyl-5-oxo-4,5-dihydroimidazo[1,5-a]quinazoline-3-carboxamide], the IC50 is below 1000 nM.

As to `Cc1cc(C(C)Nc2ccc(Cl)nc2-c2cnn(C)c2)c2c(c1)c(=O)n(C)c1c(C(=O)N3CCC3)ncn21` (stereo not drawn) [Compound 121, 3-(azetidine-1-carbonyl)-9-(1-((6-chloro-2-(1-methyl-1H-pyrazol-4-yl)pyridin-3-yl)amino)ethyl)-4,7-dimethylimidazo[1,5-a]quinazolin-5(4H)-one], the IC50 is below 1000 nM.
